Assay [1] has as its system Kuramochi cells RB-WT. Nature of the assay: IncuCyte Kuramochi cell proliferation assay, RB-WT. Particulars: 72 hours, cell count. The class given is cell-based. The essentials: (§1)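 mApple-H2B-labelled Kuramochi cells were treated with a 10-point, half-log series (top 20 µM) and imaged at 0 and 72 h. Fluorescent nuclei were counted, and the 0–72 h fold change was normalized to DMSO wells. GI50 came from dose-response fits.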

Assay [2] concerns the target CDK2/Cyclin E1 (Homo sapiens, UniProt P24941). The experiment in a line: ADP-Glo Luminescent Kinase Assay (CDK2/E1-37C). It is filed as biochemical. Particulars: 0.18 nM CDK2/Cyclin E1, 100 μM ATP, Histone H1, 37° C.; read-out: ADPGLO (CDK2/E1-37C): IC50. The procedure, abridged:
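Activated CDK2/Cyclin E1 (0.18 nM final) preincubated with compound 60 min at 37 °C, then reacted with 100 μM ATP and Histone H1 ([…]) for 90 min at 37 °C in HEPES pH 7.5 buffer. ADP-Glo luminescence normalized to % activity; IC50 from four-parameter fit.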
(In general: ADP-Glo first removes unused ATP, then detects ADP through luciferase.)

Assay [3] concerns Kuramochi cells RB-KO. Nature of the assay: IncuCyte Kuramochi cell proliferation assay, RB-KO. It is filed as cell-based. Particulars: 72 hours, cell count, batch mean. The essentials: as §1

These results are taken from patent US20260034123A1 (Cedilla Therapeutics, Inc., priority 2022, published 2026).

Structures are written as SMILES.

`Cc1cc(N2C[C@@H](COCc3cccc(C4CCC(F)(F)CC4)c3C(=O)O)C3(CN(C(=O)C4(C(F)(F)F)CC4)C3)C2)c2scnc2c1C` [I′-41]: the results for the IC50 in assay [1], in assay [2] and in assay [3] were 5 to 10 µM, over 10 µM and over 10 µM, respectively.
Take `CC1(C)C[C@@H]1C(=O)N1CC2(CN(C(=O)c3cnn(Cc4ccc(F)cc4)c3)C[C@H]2COCc2cccc(C3CCC(F)(F)CC3)c2C#N)C1` [I′-42, 2-(4,4-difluorocyclohexyl)-6-((((S)-2-((S)-2,2-dimethylcyclopropane-1-carbonyl)-6-(1-(4-fluorobenzyl)-1H-pyrazole-4-carbonyl)-2,6-diazaspiro[3.4]octan-8-yl)methoxy)methyl)benzonitrile]: the IC50 was 0.5 to 5 µM in assay [1], at most 0.5 µM in assay [2] and 0.5 to 5 µM in assay [3].
On to `CC1(C)C[C@@H]1C(=O)N1CC2(CN(C(=O)c3cnn(Cc4ccc(F)cc4)c3)C[C@H]2COCc2cccc(C3CCC(F)(F)CC3)c2-c2nn[nH]n2)C1` [I′-43, ((S)-8-(((3-(4,4-difluorocyclohexyl)-2-(2H-tetrazol-5-yl)benzyl)oxy)methyl)-2-((S)-2,2-dimethylcyclopropane-1-carbonyl)-2,6-diazaspiro[3.4]octan-6-yl)(1-(4-fluorobenzyl)-1H-pyrazol-4-yl)methanone], for which the IC50 in assay [1] was at most 0.5 µM; in assay [2], at most 0.5 µM; in assay [3], 5 to 10 µM.
As to `CS(=O)(=O)NC(=O)c1c(COC[C@@H]2CN(C(=O)c3cnn(Cc4ccc(F)cc4)c3)CC23CN(C(=O)C2(C(F)(F)F)CC2)C3)cccc1C1CCC(F)(F)CC1` [I′-44, (S)-2-(4,4-difluorocyclohexyl)-6-(((6-(1-(4-fluorobenzyl)-1H-pyrazole-4-carbonyl)-2-(1-(trifluoromethyl)cyclopropane-1-carbonyl)-2,6-diazaspiro[3.4]octan-8-yl)methoxy)methyl)-N-(methylsulfonyl)benzamide], the IC50 was 0.5 to 5 µM in assay [1], at most 0.5 µM in assay [2] and over 10 µM in assay [3].
As for `CC(C)(C(=O)N1CC2(CN(C(=O)c3cnn(Cc4cc(F)cc(F)c4)c3)C[C@H]2COCc2cccc(C3CCC(F)(F)CC3)c2C(=O)O)C1)C(F)(F)F` [I′-45, (S)-2-(((6-(1-(3,5-difluorobenzyl)-1H-pyrazole-4-carbonyl)-2-(3,3,3-trifluoro-2,2-dimethylpropanoyl)-2,6-diazaspiro[3.4]octan-8-yl)methoxy)methyl)-6-(4,4-difluorocyclohexyl)benzoic acid], the results for the IC50 in assay [1], in assay [2] and in assay [3] were 0.5 to 5 µM, at most 0.5 µM and over 10 µM, respectively.
In the case of `O=C(O)c1c(/C=C/CC2CN(C(=O)c3cnn(Cc4ccc(F)cc4)c3)CC23CN(C(=O)C2(C(F)(F)F)CC2)C3)cccc1C1CCC(F)(F)CC1` (stereo not drawn) [I′-46], the IC50 was 5 to 10 µM in assay [1], 0.5 to 5 µM in assay [2] and over 10 µM in assay [3].
On to `CC1CCC(c2cccc(COC[C@@H]3CN(c4cc(F)c(F)c5ncsc45)CC34CN(C(=O)C(C)(C)C(F)(F)F)C4)c2C(=O)O)CC1` (stereo partly drawn) [I′-47, (S)-2-(((6-(4,5-difluorobenzo[d]thiazol-7-yl)-2-(3,3,3-trifluoro-2,2-dimethylpropanoyl)-2,6-diazaspiro[3.4]octan-8-yl)methoxy)methyl)-6-(4-methylcyclohexyl)benzoic acid], for which the IC50 is over 10 µM in assay [1], at most 0.5 µM in assay [2] and over 10 µM in assay [3].
On to `O=C(O)c1c(COC[C@@H]2CN(c3cc(C(F)(F)F)c(F)c4ncsc34)CC23CN(C(=O)C2(C(F)(F)F)CC2)C3)cccc1C1CCC(F)(F)CC1` [I′-48], for which the IC50 in assay [1] is at most 0.5 µM; in assay [2], 5 to 10 µM; in assay [3], over 10 µM.
For `O=C(O)c1c(COC[C@@H]2CN(c3cc(Cl)c(Cl)c4ncsc34)CC23CN(C(=O)C2(C(F)(F)F)CC2)C3)cccc1C1CCC(F)(F)CC1` [I′-49], in that order: over 10 µM, 0.5 to 5 µM and over 10 µM.
Taken in the same sequence, the figures for `O=C(O)c1c(COC[C@@H]2CN(c3cc(F)c(F)c4nc(C(F)(F)F)sc34)CC23CN(C(=O)C2(C(F)(F)F)CC2)C3)cccc1C1CCC(F)(F)CC1` [I′-50] were over 10 µM, over 10 µM and over 10 µM.
Take `CC(C)(C(=O)N1CC2(CN(C(=O)c3cnn(Cc4cc(F)c(F)cc4F)c3)C[C@H]2COCc2cccc(C3CCC(F)(F)CC3)c2C(=O)O)C1)C(F)(F)F` [I′-52, (S)-2-(4,4-difluorocyclohexyl)-6-(((2-(3,3,3-trifluoro-2,2-dimethylpropanoyl)-6-(1-(2,4,5-trifluorobenzyl)-1H-pyrazole-4-carbonyl)-2,6-diazaspiro[3.4]octan-8-yl)methoxy)methyl)benzoic acid]: the IC50 is 0.5 to 5 µM in assay [1], at most 0.5 µM in assay [2] and over 10 µM in assay [3].
For the compound `CC(C)(C(=O)N1CC2(CN(C(=O)c3cnn(Cc4cc(F)c(F)c(F)c4)c3)C[C@H]2COCc2cccc(C3CCC(F)(F)CC3)c2C(=O)O)C1)C(F)(F)F` [I′-53], the results for the IC50 in assay [1], in assay [2] and in assay [3] were 0.5 to 5 µM, at most 0.5 µM and over 10 µM, respectively.
As for `O=C(c1cnn(Cc2ccc(F)cc2)c1)N1C[C@@H](COCc2cccc(C3CCC(F)(F)CC3)c2-c2nn[nH]n2)C2(C1)CN(C(=O)C1(C(F)(F)F)CC1)C2` [I′-54, (S)-(8-(((3-(4,4-difluorocyclohexyl)-2-(2H-tetrazol-5-yl)benzyl)oxy)methyl)-2-(1-(trifluoromethyl)cyclopropane-1-carbonyl)-2,6-diazaspiro[3.4]octan-6-yl)(1-(4-fluorobenzyl)-1H-pyrazol-4-yl)methanone], the IC50 in assay [1] is 5 to 10 µM; in assay [2], at most 0.5 µM; in assay [3], over 10 µM.
Taken in the same sequence, the figures for `O=C(c1cnn(Cc2ccc(F)cc2)c1)N1CC(COCc2cccc(C3CCC(F)(F)CC3)c2-c2noc(=O)[nH]2)C2(C1)CN(C(=O)C1(C(F)(F)F)CC1)C2` (stereo not drawn) [I′-55, 3-(2-(4,4-difluorocyclohexyl)-6-(((6-(1-(4-fluorobenzyl)-1H-pyrazole-4-carbonyl)-2-(1-(trifluoromethyl)cyclopropane-1-carbonyl)-2,6-diazaspiro[3.4]octan-8-yl)methoxy)methyl)phenyl)-1,2,4-oxadiazol-5(4H)-one] were 5 to 10 µM, at most 0.5 µM and over 10 µM.
For `O=C(c1cnn(Cc2ccc(F)cc2)c1)N1CC(COCc2cccc(C3CCC(F)(F)CC3)c2C(=O)C(F)(F)F)C2(C1)CN(C(=O)C1(C(F)(F)F)CC1)C2` (stereo not drawn) [I′-56], the IC50 in assay [1] is 0.5 to 5 µM; in assay [2], over 10 µM; in assay [3], over 10 µM.
On to `NC(=O)c1c(COC[C@@H]2CN(C(=O)c3cnn(Cc4ccccc4C(=O)O)c3)CC23CN(C(=O)C2(C(F)(F)F)CC2)C3)cccc1C1CCC(F)(F)CC1` [I′-57, (S)-2-((4-(8-(((2-carbamoyl-3-(4,4-difluorocyclohexyl)benzyl)oxy)methyl)-2-(1-(trifluoromethyl)cyclopropane-1-carbonyl)-2,6-diazaspiro[3.4]octane-6-carbonyl)-1H-pyrazol-1-yl)methyl)benzoic acid], for which the IC50 is 5 to 10 µM in assay [1], at most 0.5 µM in assay [2] and 0.5 to 5 µM in assay [3].
Taken in the same sequence, the figures for `CC(C)(C(=O)N1CC2(CN(C(=O)c3cnn(Cc4ccc(F)c(F)c4)c3)C[C@H]2COCc2cccc(C3CCC(F)(F)CC3)c2C(=O)O)C1)C(F)(F)F` [I′-58, (S)-2-(((6-(1-(3,4-difluorobenzyl)-1H-pyrazole-4-carbonyl)-2-(3,3,3-trifluoro-2,2-dimethylpropanoyl)-2,6-diazaspiro[3.4]octan-8-yl)methoxy)methyl)-6-(4,4-difluorocyclohexyl)benzoic acid] were over 10 µM, at most 0.5 µM and over 10 µM.
As to `NC(=O)c1c(COC[C@@H]2CN(c3cc(C(=O)O)cc4ncsc34)CC23CN(C(=O)C2(C(F)(F)F)CC2)C3)cccc1C1CCC(F)(F)CC1` [I′-59], the figures for the IC50 in assay [1], in assay [2] and in assay [3] were 0.5 to 5 µM, over 10 µM and over 10 µM, respectively.
Take `O=C(O)c1c(COCC2CN(Cc3cnn(Cc4ccc(F)cc4)c3)C(=O)C23CN(C(=O)C2(C(F)(F)F)CC2)C3)cccc1C1CCC(C(F)(F)F)CC1` (stereo not drawn) [I′-60]: the IC50 in assay [1], in assay [2] and in assay [3] was over 10 µM in each case.
Take `O=C(O)c1c(COC[C@@H]2CN(c3cc(F)c(F)c4[nH]ccc34)CC23CN(C(=O)C2(C(F)(F)F)CC2)C3)cccc1C1CCC(F)(F)CC1` [I′-61]: the IC50 in assay [1], in assay [2] and in assay [3] was over 10 µM each time.
As to `O=C(O)c1c(COC[C@H]2CN(c3cc(F)c(F)c4ncsc34)CC23CN(C(=O)C2(C(F)(F)F)CC2)C3)cccc1C1CCC(F)(F)CC1` [I′-62], the IC50 in assay [1] was over 10 µM; in assay [2], 0.5 to 5 µM; in assay [3], over 10 µM.
`O=C(c1cnn(Cc2ccc(F)cc2)c1)N1CC(COCc2cccc(C3CCC(F)(F)CC3)c2-c2n[nH]c(=O)o2)C2(C1)CN(C(=O)C1(C(F)(F)F)CC1)C2` (stereo not drawn) [I′-63, 5-(2-(4,4-difluorocyclohexyl)-6-(((6-(1-(4-fluorobenzyl)-1H-pyrazole-4-carbonyl)-2-(1-(trifluoromethyl)cyclopropane-1-carbonyl)-2,6-diazaspiro[3.4]octan-8-yl)methoxy)methyl)phenyl)-1,3,4-oxadiazol-2(3H)-one]: the IC50 in assay [1] was over 10 µM; in assay [2], at most 0.5 µM; in assay [3] it was over 10 µM.
